Calls of active or inactive are those of the source. No stated cut-off is given here; in the data, actives have a measured IC50 and inactives only a lower limit.
target: Envelope glycoprotein gp160 (Human immunodeficiency virus 1, UniProt Q6QLK5); assay: inhibitors of HIV fusion peptide binding, primary screen, biochemical, uHTS, fluorescence dequenching (AID 1986)
Sequence (Q6QLK5 whole entry, the tested form may be a part): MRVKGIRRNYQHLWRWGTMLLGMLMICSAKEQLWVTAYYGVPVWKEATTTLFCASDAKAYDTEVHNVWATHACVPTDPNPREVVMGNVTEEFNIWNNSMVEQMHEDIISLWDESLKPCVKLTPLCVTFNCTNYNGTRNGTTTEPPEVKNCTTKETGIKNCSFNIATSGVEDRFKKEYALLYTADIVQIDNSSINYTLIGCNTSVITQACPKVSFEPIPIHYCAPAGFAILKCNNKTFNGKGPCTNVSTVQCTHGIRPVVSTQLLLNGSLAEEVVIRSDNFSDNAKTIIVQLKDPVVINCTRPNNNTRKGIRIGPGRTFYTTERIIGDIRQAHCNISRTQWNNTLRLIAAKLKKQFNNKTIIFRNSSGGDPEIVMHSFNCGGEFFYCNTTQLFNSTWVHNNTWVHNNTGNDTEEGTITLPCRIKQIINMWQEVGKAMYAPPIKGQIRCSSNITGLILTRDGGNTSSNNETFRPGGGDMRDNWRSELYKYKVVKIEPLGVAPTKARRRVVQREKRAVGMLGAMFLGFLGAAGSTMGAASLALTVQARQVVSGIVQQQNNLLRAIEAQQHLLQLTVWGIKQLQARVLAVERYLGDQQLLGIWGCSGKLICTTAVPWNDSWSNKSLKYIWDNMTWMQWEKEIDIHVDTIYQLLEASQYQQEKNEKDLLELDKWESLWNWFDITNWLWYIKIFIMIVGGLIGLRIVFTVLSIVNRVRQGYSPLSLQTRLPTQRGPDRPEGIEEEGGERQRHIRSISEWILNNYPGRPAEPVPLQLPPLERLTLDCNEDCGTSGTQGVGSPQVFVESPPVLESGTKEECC

SMILES	IC50
CC(C)(C)c1ccc(OCC(=O)NNC(=S)NC(=O)c2ccccc2[N+](=O)[O-])c(Br)c1	28.7 µM (active)
NS(=O)(=O)c1cc(C(=O)NC2CCSc3ccccc32)ccc1Cl (centres undefined)	8.22 µM (active)
O=C(O)CN1C(=O)/C(=C\c2cc(Br)ccc2OCc2ccc(Cl)cc2Cl)SC1=S	13.1 µM (active)
CCCCCC(=O)Cc1cc(O)cc2c1C(=O)Oc1cc(O)c(C(=O)O)c(CCCCC)c1O2 [PHYSODIC ACID]	4.1 µM (active)
